Experimental data as given in US12661333B2, “Composition for use in treatment of a biofilm in a subject” (TECHNOLOGICAL UNIVERSITY DUBLIN, priority 2020, dated 2026).

Key:
[1] = test system: Enterococcus faecalis ATCC 7080; test: Biofilm formation in vitro, crystal violet assay; type: cell-based; conditions: for reduction of biofilm formation versus control: 24 hours, 37° C., FIG. 1B
Protocol: (§1) FIG. 1: The effect of varying concentrations of DHA on the ability of Klebsiella pneumoniae NCIMB 418 (A) and Enterococcus faecalis ATCC 7080 (B) to form a biofilm in vitro. (10^6 CFU/well was incubated with various concentrations of DHA in a 96 well plate for 24 hours statically at 37° C. Biofilm formation was assessed using the crystal violet assay. Data represents the mean±SD for six independent experiments, carried out in triplicate. One-way ANOVA was performed for statistical analysis. *****P<0.001 compared to both the control (no DHA) and vehicle control (1% DMSO).
The effect of varying concentrations of DHA on the ability of Klebsiella pneumoniae NCIMB 418 and Enterococcus faecalis ATCC 7080 to form a biofilm in vitro was investigated. 10^6 CFU/well was incubated with various concentrations of DHA in a 96 well plate for 24 hours statically at 37° C. Biofilm formation was assessed using the crystal violet assay. Data represents the mean±SD for six independent experiments, carried out in triplicate. The assay involves seeding cells at 10^^6 CFU/ml in media with DHA. Cells were then left for 24 hrs to form biofilms before washing and staining with Crystal Violet. Crystal violet adheres to cells stuck to the sides of the tube/well. The samples is washed again to remove any unbound dye before dissolving the stain in acetic acid and measuring the reading in a spectrophotometer. The colour intensity relates to the level of biofilm present. The more colour the more bacteria in the biofilm. Merritt, J. H., Kadouri, D. E. and O'Toole, G. A. (2005) ‘Growing and Analyzing Static Biofilms’, Current Protocols in Microbiology, Chapter 1(Jul), p. Unit 1B.1.

[2] = test system: human gingival fibroblasts (HGFs); set-up: dose or concentration left out as unconfirmed; conditions: exposed for 24 and 48 hours; cited from earlier work
[3] = test system: Klebsiella pneumoniae NCIMB 418; test: Biofilm formation in vitro, crystal violet assay; type: cell-based; conditions: for reduction of biofilm formation versus control: 24 hours, 37° C., FIG. 1A
Protocol: as §1
FIG. 2: Comparing DNA (16 μM) and Erythromycin (4 μg/ml) individually and adjunct for antibiofilm effects against Klebsiella pneumoniae NCIMB 481 in vitro. 10^6 CFU/well was incubated with each well of a 96 well plate for 24 hours statically at 37° C. Biofilm formation was assessed using the crystal violet assay. Data represents the mean±SD for four independent experiments, carried out in triplicate. One-way ANOVA was performed for statistical analysis. *****P<0.001 compared to both the control (no DHA or Erythromycin), vehicle control (1% DMSO), DHA (16 μM) and Erythromycin (4 μg·mL).
The effect of varying concentrations of DHA on the ability of Klebsiella pneumoniae NCIMB 418 and Enterococcus faecalis ATCC 7080 to form a biofilm in vitro was investigated. 10^6 CFU/well was incubated with various concentrations of DHA in a 96 well plate for 24 hours statically at 37° C. Biofilm formation was assessed using the crystal violet assay. Data represents the mean±SD for six independent experiments, carried out in triplicate. The assay involves seeding cells at 10^^6 CFU/ml in media with DHA. […] The samples is washed again to remove any unbound dye before dissolving the stain in acetic acid and measuring the reading in a spectrophotometer. […]
The effects of DHA (16 μM) and Erythromycin (4 μg/ml) were compared individually and adjunct for antibiofilm effects against Klebsiella pneumoniae NCIMB 481 in vitro. […] Biofilm formation was assessed using the crystal violet assay. […]

[4] = test system: human periodontal ligament cells (hPDLCs); set-up: dose or concentration left out as unconfirmed; conditions: exposed for 24 and 48 hours; cited from earlier work
[5] = summary of FIG. 1, concentration not stated

CC/C=C\C/C=C\C/C=C\C/C=C\C/C=C\C/C=C\CCC(=O)O [DHA, docosahexaenoic acid]
reduction of biofilm formation versus control ([1]; DHA 6.25 μM): ~20%
reduction of biofilm formation versus control ([1]; DHA 100 μM): ~65%
reducing biofilm formation [1, 5]: approximately 60%
cytotoxic effects [2]: cytotoxic effects
reduction of biofilm formation versus control ([3]; DHA 6.25 μM): ~40%
reduction of biofilm formation versus control ([3]; DHA 100 μM): ~65%
reducing biofilm formation [3, 5]: approximately 60%
cytotoxic effects [4]: cytotoxic effects
